Test results: article PMC6044741 (ACS Omega, 2018)
Entries after “also recorded” stand apart in the source; their conditions may differ.

Columns and labels:
[1] = biological target: T1, human RORγ hybrids of both isoforms 1 and 2 (Homo sapiens, UniProt P51449); assay: Human RAR-related Orphan Receptor Gamma Reporter Assay System; format: cell-based; conditions: for RORγt activity in experimental testing (active / inactive): result in words
T1 sequence (P51449 259-518): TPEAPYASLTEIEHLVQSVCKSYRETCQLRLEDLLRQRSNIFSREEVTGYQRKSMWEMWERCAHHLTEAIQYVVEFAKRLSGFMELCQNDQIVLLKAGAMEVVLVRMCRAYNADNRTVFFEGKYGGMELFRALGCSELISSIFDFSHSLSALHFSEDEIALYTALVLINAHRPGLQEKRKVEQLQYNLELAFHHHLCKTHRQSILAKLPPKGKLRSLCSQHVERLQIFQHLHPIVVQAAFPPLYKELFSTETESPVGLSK

[2] = listed 15.11.2017 in the ChEMBL; cited from earlier work

SMILES | RORγt activity in experimental testing (active / inactive) [1] | log P [2] | IC50 [1]
Cc1cc(C=C2C(=O)NC(=S)N(c3cccc(Br)c3)C2=O)c(C)n1-c1ccc(S(N)(=O)=O)cc1 [Compound 2] | active |  | 
CC(C)CN(Cc1ccc(F)cc1)S(=O)(=O)c1ccc(NC2CCN(S(C)(=O)=O)CC2)nc1 [Compound 3QQ, N-(4-fluorobenzyl)-N-(2-methylpropyl)-6-{[1-(methylsulfonyl)piperidin-4-yl]amino}pyridine-3-sulfonamide] |  | 2.3 | 
Cc1ccccc1-c1cc(C(=O)N2CCN(c3cccc(C(F)(F)F)c3)CC2)c2ccccc2n1 [Compound 12] | less active |  | 
Cc1ccc(-c2cc(C(=O)N3CCN(c4cccc(C(F)(F)F)c4)CC3)c3ccccc3n2)o1 [Compound 13] | less active |  | 
Cc1ccccc1-c1cc(C(=O)N2CCN(c3ccc([N+](=O)[O-])cc3)CC2)c2ccccc2n1 [Compound 16] | either insoluble or inactive |  | 
Cc1ccc(-c2cc(C(=O)N3CCN(c4ccc(F)cc4)CC3)c3ccccc3n2)cc1 [Compound 17] | either insoluble or inactive; also recorded: inactivity |  | 
O=C(COC(=O)c1cccc(N2C(=O)C3C4c5ccccc5C(c5ccccc54)C3C2=O)c1)c1ccccc1 (stereo not drawn) [Compound 18] | activity |  | 
O=C(COC(=O)c1cccc(N2C(=O)C3C4c5ccccc5C(c5ccccc54)C3C2=O)c1)c1ccc(Cl)cc1 (stereo not drawn) [Compound 19] | activity |  | 
O=C(Oc1ccc(N2C(=O)C3C4c5ccccc5C(c5ccccc54)C3C2=O)cc1)c1cccc([N+](=O)[O-])c1 (stereo not drawn) [Compound 20] | inactive |  | 
O=C(O)c1ccc(NC(=O)c2cccc(N3C(=O)C4C5c6ccccc6C(c6ccccc65)C4C3=O)c2)cc1 (stereo not drawn) [Compound 21] | inactive |  | 
CC1(c2cccc([N+](=O)[O-])c2)Nc2ccccc2C(=O)N1N=Cc1cc(Br)cc(Br)c1O (stereo not drawn) [Compound 34] | not a particularly potent inverse agonist |  | 10 µM
